Assay results as given in patent US20240207247A1, “METHODS FOR THE COMBINED ADMINISTRATION OF DEUTETRABENAZINE AND A CYP2D6 INHIBITOR” (Neurocrine Biosciences, Inc., priority 2021, published 2024).

Experiments:
[1] = Phase 1 open-label 2-sequence crossover single-dose pharmacokinetic study of deutetrabenazine metabolites; type: in vivo, human (healthy male and female subjects); settings: share of total DHTBZ exposure after single dose deutetrabenazine 24 mg, healthy subjects
Method: A phase 1, open-label, 2-sequence crossover study was conducted to evaluate the HTBZ PK profile following administration of valbenazine (40 mg) or deutetrabenazine (24 mg) to a total of 18 healthy male and female subjects. Subjects received a single dose of valbenazine 40 mg on Day 1 and a single dose of deutetrabenazine 24 mg on Day 16; or received a single dose of deutetrabenazine 24 mg on Day 1 and a single dose of valbenazine 40 mg on Day 16. Valbenazine 40 mg was administered as one 40 mg capsule and deutetrabenazine 24 mg was administered as two 12 mg tablets. Study drug was administered at approximately 0800 hours, approximately 30 minutes after the start of a standard breakfast. […] PK parameters were determined using non-compartmental analysis with Phoenix WinNonlin 8.3 software. The in vitro pharmacology of the deuterated HTBZ metabolites was assessed using competitive radioligand binding assays.

[2] = paroxetine 20 mg daily for 8 days, then single 22.5 mg dose of deutetrabenazine; 24 healthy subjects; cited from earlier work

SMILES	AUC (% of Total) [1]	increase in mean half-life in the presence of paroxetine [2]
[2H]C([2H])([2H])Oc1cc2c(cc1OC([2H])([2H])[2H])[C@H]1C[C@@H](O)[C@H](CC(C)C)CN1CC2 [[+]-α-DHTBZ]	2%	
COc1cc2c(cc1OC)[C@@H]1C[C@H](O)[C@@H](CC(C)C)CN1CC2 [α-DHTBZ]		approximately 1.5 fold

Continued, in another order:

AUC (% of Total) [1]	SMILES	increase in mean half-life in the presence of paroxetine [2]
29%	[2H]C([2H])([2H])Oc1cc2c(cc1OC([2H])([2H])[2H])[C@H]1C[C@H](O)[C@H](CC(C)C)CN1CC2 [[+]-β-DHTBZ, (+)-β-3-isobutyl-9,10-di(methoxy-d3)-1,3,4,6,7,11b-hexahydro-2H-pyrido[2,1-a]isoquinolin-2-ol]	
66%	[2H]C([2H])([2H])Oc1cc2c(cc1OC([2H])([2H])[2H])[C@@H]1C[C@H](O)[C@@H](CC(C)C)CN1CC2 [[−]-α-DHTBZ, (−)-α-3-isobutyl-9,10-di(methoxy-d3)-1,3,4,6,7,11b-hexahydro-2H-pyrido[2,1-a]isoquinolin-2-ol]	
3%	[2H]C([2H])([2H])Oc1cc2c(cc1OC([2H])([2H])[2H])[C@@H]1C[C@@H](O)[C@@H](CC(C)C)CN1CC2 [[−]-β-DHTBZ, (−) -β-3-isobutyl-9,10-di(methoxy-d3)-1,3,4,6,7,11b-hexahydro-2H-pyrido[2,1-a]isoquinolin-2-ol]	
